The experiment concerns compound-treated mice. Put plainly: Neuropharmacological assay (SmartCube): behavioral activity signature and minimal effective dose. Format: in vivo. To be noted: for minimal effective dose: Mus musculus, ip, MED = dose having 50% or more total activity, read-out: Potency: minimal effective dose (MED); for AD: ADHD (probability of activity signature) / AG: analgesic (probability of activity signature) / AX: anxiolytic (probability of activity signature) / CE: cognitive enhancer (probability of activity signature) / DP: anti-depressant (probability of activity signature) / MS: mood stabilizer (probability of activity signature) / PS: anti-psychotic (probability of activity signature) / SD: sedative hypnotic (probability of activity signature) / UN: uncharacterized CNS activity (probability of activity signature): i.p. 15 min before test, most efficacious dose(s). In outline:
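Video-recorded behavior is compared algorithmically against a reference-compound database, yielding class probabilities (best dose reported). Compounds given i.p. in NMP/PEG/propylene glycol 15 min pre-test at 3 doses; potency as MED, the dose (mpk, range usually 0.3–30) reaching ≥50% total activity.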

The text below walks through data of patent US11077090B2, “Compounds and compositions and uses thereof” (Sunovion Pharmaceuticals Inc., priority 2016, dated 2021).

Each structure is given as a SMILES string.

Broadly, the minimal effective dose is the smallest amount tested that counted as effective. With `COc1ccc2c(c1)C(N)COC2.Cl` (stereo not drawn) [Example 10, 6-Methoxyisochroman-4-amine hydrochloride], the minimal effective dose was 3 to 10 mg/kg, the “AD: ADHD (probability of activity signature)” value (“AD: ADHD” for short) is listed as “+ (LOQ ≤ + <5%)”, the “AG: analgesic (probability of activity signature)” value (shortened to “AG: analgesic”) is “++ (5% ≤ ++ <25%)” and the “AX: anxiolytic (probability of activity signature)” value (“AX: anxiolytic” for short) is “++ (5% ≤ ++ <25%)”. For the same compound, the “CE: cognitive enhancer (probability of activity signature)” value (“CE: cognitive enhancer” for short) was “+++ (25% ≤ +++ <50%)”, the “DP: anti-depressant (probability of activity signature)” value (“DP: anti-depressant” for short) is “++ (5% ≤ ++ <25%)”, the “MS: mood stabilizer (probability of activity signature)” value (from here on “MS: mood stabilizer”) is “+ (LOQ ≤ + <5%)” and the “PS: anti-psychotic (probability of activity signature)” value (from here on “PS: anti-psychotic”) is given as “+++ (25% ≤ +++ <50%)”. Also, the “SD: sedative hypnotic (probability of activity signature)” value (“SD: sedative hypnotic” for short) is given as “++ (5% ≤ ++ <25%)” and the “UN: uncharacterized CNS activity (probability of activity signature)” value (“UN: uncharacterized CNS activity” below) is on record as “++ (5% ≤ ++ <25%)”.

As for `CC(C)(C)c1ccc2c(c1)C(N)COC2.Cl` (stereo not drawn) [Example 11], the minimal effective dose was in the range of 10 to 30 mg/kg, the “AD: ADHD” value is “+ (LOQ ≤ + <5%)”, the “AG: analgesic” value is listed as “+ (LOQ ≤ + <5%)” and the “AX: anxiolytic” value is given as “+ (LOQ ≤ + <5%)”. Besides, the “CE: cognitive enhancer” value is recorded as “++ (5% ≤ ++ <25%)”, the “DP: anti-depressant” value is “++ (5% ≤ ++ <25%)”, the “MS: mood stabilizer” value is “+ (LOQ ≤ + <5%)” and the “PS: anti-psychotic” value is listed as “+ (LOQ ≤ + <5%)”. Moreover, the “SD: sedative hypnotic” value is on record as “++ (5% ≤ ++ <25%)” and the “UN: uncharacterized CNS activity” value is given as “+ (LOQ ≤ + <5%)”.

For `Cl.NC1COCc2ccccc21` (stereo not drawn) [Example 12], the minimal effective dose lay in the range of 10 to 30 mg/kg, the “AD: ADHD” value is listed as “+ (LOQ ≤ + <5%)”, the “AG: analgesic” value was “++ (5% ≤ ++ <25%)” and the “AX: anxiolytic” value is “++ (5% ≤ ++ <25%)”. In addition, the “CE: cognitive enhancer” value is on record as “++ (5% ≤ ++ <25%)”, the “DP: anti-depressant” value was “++ (5% ≤ ++ <25%)”, the “MS: mood stabilizer” value is listed as “+ (LOQ ≤ + <5%)” and the “PS: anti-psychotic” value is on record as “++ (5% ≤ ++ <25%)”. Also, the “SD: sedative hypnotic” value is on record as “+ (LOQ ≤ + <5%)” and the “UN: uncharacterized CNS activity” value is “+++ (25% ≤ +++ <50%)”.

For the compound `Cl.NC1COCc2ccc3ccccc3c21` (stereo not drawn) [Example 13], the minimal effective dose was 3 to 10 mg/kg, the “AD: ADHD” value was “+ (LOQ ≤ + <5%)”, the “AG: analgesic” value is reported as “++ (5% ≤ ++ <25%)” and the “AX: anxiolytic” value was “++ (5% ≤ ++ <25%)”. Moreover, the “CE: cognitive enhancer” value is recorded as “++ (5% ≤ ++ <25%)”, the “DP: anti-depressant” value was “++ (5% ≤ ++ <25%)”, the “MS: mood stabilizer” value is reported as “+ (LOQ ≤ + <5%)” and the “PS: anti-psychotic” value is listed as “++ (5% ≤ ++ <25%)”. Also, the “SD: sedative hypnotic” value is recorded as “+ (LOQ ≤ + <5%)” and the “UN: uncharacterized CNS activity” value is reported as “++++ (50% ≤ ++++)”.

On to `COc1ccc2c(c1)COCC2N.Cl` (stereo not drawn) [Example 14], for which the minimal effective dose is 10 to 30 mg/kg, the “AD: ADHD” value was “+ (LOQ ≤ + <5%)”, the “AG: analgesic” value was “++ (5% ≤ ++ <25%)” and the “AX: anxiolytic” value was “++ (5% ≤ ++ <25%)”. Further, the “CE: cognitive enhancer” value is listed as “+ (LOQ ≤ + <5%)”, the “DP: anti-depressant” value was “++ (5% ≤ ++ <25%)”, the “MS: mood stabilizer” value is given as “+ (LOQ ≤ + <5%)” and the “PS: anti-psychotic” value is on record as “+ (LOQ ≤ + <5%)”. The “SD: sedative hypnotic” value is listed as “+ (LOQ ≤ + <5%)” and the “UN: uncharacterized CNS activity” value is recorded as “++++ (50% ≤ ++++)”.

Regarding `Cl.NC1COCc2ccc3ncccc3c21` (stereo not drawn) [Example 15], the minimal effective dose is > 30 mg/kg, the “AD: ADHD” value is listed as “+ (LOQ ≤ + <5%)”, the “AG: analgesic” value is “+ (LOQ ≤ + <5%)” and the “AX: anxiolytic” value is given as “+ (LOQ ≤ + <5%)”. Besides, the “CE: cognitive enhancer” value is given as “+ (LOQ ≤ + <5%)”, the “DP: anti-depressant” value is recorded as “+ (LOQ ≤ + <5%)”, the “MS: mood stabilizer” value is recorded as “+ (LOQ ≤ + <5%)” and the “PS: anti-psychotic” value is recorded as “+ (LOQ ≤ + <5%)”. Moreover, the “SD: sedative hypnotic” value is recorded as “+ (LOQ ≤ + <5%)” and the “UN: uncharacterized CNS activity” value is “+ (LOQ ≤ + <5%)”.

As to `Cc1nc2c3c(ccc2s1)COCC3N.Cl` (stereo not drawn) [Example 16], the minimal effective dose was 10 to 30 mg/kg, the “AD: ADHD” value is listed as “+ (LOQ ≤ + <5%)”, the “AG: analgesic” value is “++ (5% ≤ ++ <25%)” and the “AX: anxiolytic” value is given as “+++ (25% ≤ +++ <50%)”. The “CE: cognitive enhancer” value is given as “++ (5% ≤ ++ <25%)”, the “DP: anti-depressant” value was “+ (LOQ ≤ + <5%)”, the “MS: mood stabilizer” value is “+ (LOQ ≤ + <5%)” and the “PS: anti-psychotic” value is “++ (5% ≤ ++ <25%)”. In addition, the “SD: sedative hypnotic” value is recorded as “+ (LOQ ≤ + <5%)” and the “UN: uncharacterized CNS activity” value is given as “+++ (25% ≤ +++ <50%)”.

`CCc1cccc2c1COCC2N.Cl` (stereo not drawn) [Example 17, 8-Ethylisochroman-4-amine hydrochloride]: the minimal effective dose fell in the range of 10 to 30 mg/kg, the “AD: ADHD” value is given as “+ (LOQ ≤ + <5%)”, the “AG: analgesic” value is on record as “++ (5% ≤ ++ <25%)” and the “AX: anxiolytic” value is recorded as “+++ (25% ≤ +++ <50%)”. Also, the “CE: cognitive enhancer” value is “++ (5% ≤ ++ <25%)”, the “DP: anti-depressant” value is on record as “++ (5% ≤ ++ <25%)”, the “MS: mood stabilizer” value is “+ (LOQ ≤ + <5%)” and the “PS: anti-psychotic” value is recorded as “++ (5% ≤ ++ <25%)”. For the same compound, the “SD: sedative hypnotic” value was “+ (LOQ ≤ + <5%)” and the “UN: uncharacterized CNS activity” value is “+++ (25% ≤ +++ <50%)”.

Consider `CC(C)c1cccc2c1COCC2N.Cl` (stereo not drawn) [Example 18, 8-Isopropylisochroman-4-amine hydrochloride], for which the minimal effective dose lay in the range of 10 to 30 mg/kg, the “AD: ADHD” value is “+ (LOQ ≤ + <5%)”, the “AG: analgesic” value is on record as “+++ (25% ≤ +++ <50%)” and the “AX: anxiolytic” value is reported as “++ (5% ≤ ++ <25%)”. Also, the “CE: cognitive enhancer” value is recorded as “++ (5% ≤ ++ <25%)”, the “DP: anti-depressant” value is given as “++ (5% ≤ ++ <25%)”, the “MS: mood stabilizer” value was “+ (LOQ ≤ + <5%)” and the “PS: anti-psychotic” value is recorded as “++ (5% ≤ ++ <25%)”. Also, the “SD: sedative hypnotic” value is “++ (5% ≤ ++ <25%)” and the “UN: uncharacterized CNS activity” value is recorded as “+ (LOQ ≤ + <5%)”.
